Consider three compounds from US20220009920A1 (GB005, Inc., priority 2020, published 2022).

Common to all, as to format: biochemical
For assay [1], the target named is T1, BTK (Homo sapiens, UniProt Q06187).
T1 construct: purchased Cama
Briefly: Assay to determine activity against BTK. Conditions: 1 mM ATP, 2 nM BTK, 90 minutes at room temperature. In outline: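 Recombinant BTK (2 nM) was assayed with 1.5 µM FL-peptide and 1 mM ATP in pH 7.5 HEPES buffer with MgCl2, DTT, BSA and EGTA, for 90 min at room temperature before an EDTA stop. Peptide conversion ratio was read by mobility-shift, and IC50 came from 11-point 3-fold dilution curves.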

Assay [2] concerns 288 kinases. Briefly: Large panel kinase profiling, overall selectivity. The note with it: 1 μM test article, 1 mM ATP. How it is done: Large panel kinase profiling was performed at AssayQuant Technologies, Inc. 260 Cedar Hill Street, Marlborough, Mass. 01752 using the PhosphoSens® CSox-Sensor platform using 1 μM test article concentration and 1 mM ATP concentration (www.assayquant.com). Reactions were run in Corning, half-area 96-well, white flat round bottom polystyrene NBS microplates (Cat. #3642) after sealing using optically-clear adhesive film (TopSealA-Plus plate seal, PerkinElmer), applied with either a roller or a paddle to eliminate evaporation and resulting drift. The standard total reaction volume was 50 μL. All experiments were ran at 30° C. to control for fluctuations in ambient temperature. Plates were read from the top in kinetic mode (readings taken every 1 min), monitoring fluorescence intensity with filters using Ex 360 nm and Em 485 nm and a band width of 40 and 20 nm, respectively, and a gain of 80. Data analysis was performed using either Graphpad Prism or Gene Data Screener software.

Assay [3] deals with T2, EIF2AK3/PEK (Homo sapiens, UniProt Q9NZJ5).
T2 sequence (Q9NZJ5 30-1116): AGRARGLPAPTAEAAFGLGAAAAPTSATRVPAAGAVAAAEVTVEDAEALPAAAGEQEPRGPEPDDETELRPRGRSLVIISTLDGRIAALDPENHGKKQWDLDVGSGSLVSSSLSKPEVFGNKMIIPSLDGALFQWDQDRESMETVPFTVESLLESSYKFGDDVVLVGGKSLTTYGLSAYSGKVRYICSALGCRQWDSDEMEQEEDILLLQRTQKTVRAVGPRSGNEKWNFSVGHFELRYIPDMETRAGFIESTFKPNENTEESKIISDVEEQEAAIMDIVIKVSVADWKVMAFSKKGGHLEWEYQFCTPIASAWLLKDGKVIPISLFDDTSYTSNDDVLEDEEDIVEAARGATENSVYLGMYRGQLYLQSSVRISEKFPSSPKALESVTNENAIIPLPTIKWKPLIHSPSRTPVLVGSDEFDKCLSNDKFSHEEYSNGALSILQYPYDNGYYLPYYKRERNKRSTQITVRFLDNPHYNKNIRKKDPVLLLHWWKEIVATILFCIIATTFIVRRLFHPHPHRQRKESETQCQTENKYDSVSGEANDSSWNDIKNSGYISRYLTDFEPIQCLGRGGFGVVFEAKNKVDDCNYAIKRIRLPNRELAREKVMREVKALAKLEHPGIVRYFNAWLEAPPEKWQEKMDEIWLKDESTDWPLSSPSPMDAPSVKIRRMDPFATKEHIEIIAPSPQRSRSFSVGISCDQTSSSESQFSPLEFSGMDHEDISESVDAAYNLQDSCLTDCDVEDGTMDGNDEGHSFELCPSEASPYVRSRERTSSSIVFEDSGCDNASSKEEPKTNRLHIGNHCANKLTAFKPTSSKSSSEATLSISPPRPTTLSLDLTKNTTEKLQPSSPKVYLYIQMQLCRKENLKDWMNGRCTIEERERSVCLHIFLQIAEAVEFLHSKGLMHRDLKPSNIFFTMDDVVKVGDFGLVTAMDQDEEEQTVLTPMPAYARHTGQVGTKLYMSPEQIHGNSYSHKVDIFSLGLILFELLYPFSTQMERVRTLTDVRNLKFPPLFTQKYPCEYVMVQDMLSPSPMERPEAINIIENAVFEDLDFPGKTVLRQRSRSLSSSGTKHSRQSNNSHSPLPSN
Briefly: Large panel kinase profiling. The note with it: 1 μM test article, 1 mM ATP. Summed up: (§1)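 Reactions contain 1 mM ATP and 1 μM test article; the CSox peptide sensor reports phosphorylation as fluorescence gain. Temperature is held at 30° C. while signal (360 nm excitation, 485 nm emission) is recorded every 1 min.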

The target of assay [4] is PDGFRB (Homo sapiens, UniProt P09619). Briefly: Large panel kinase profiling. The note with it: 1 μM test article, 1 mM ATP. Summed up: as §1
In assay [5] the target is PRKAA2/AMPK221 (Homo sapiens, UniProt P54646). Briefly: Large panel kinase profiling. The note with it: 1 μM test article, 1 mM ATP. Summed up: as §1
Assay [6] deals with PRKACG (Homo sapiens, UniProt P22612). Briefly: Large panel kinase profiling. Conditions: 1 μM test article, 1 mM ATP. In outline: as §1
PRKACG, sequence (P22612 whole entry, species assumed): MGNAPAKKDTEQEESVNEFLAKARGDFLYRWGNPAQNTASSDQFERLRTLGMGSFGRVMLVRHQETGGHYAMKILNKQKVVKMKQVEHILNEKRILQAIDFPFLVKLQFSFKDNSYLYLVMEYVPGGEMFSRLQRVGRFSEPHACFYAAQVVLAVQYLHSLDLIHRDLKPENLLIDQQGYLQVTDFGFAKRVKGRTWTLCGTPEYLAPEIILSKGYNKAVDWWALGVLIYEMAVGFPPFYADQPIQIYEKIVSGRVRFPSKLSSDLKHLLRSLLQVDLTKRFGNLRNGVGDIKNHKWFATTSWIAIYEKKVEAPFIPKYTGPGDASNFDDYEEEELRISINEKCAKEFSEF

PRKAA2/AMPK221, sequence (P54646 whole entry, species assumed): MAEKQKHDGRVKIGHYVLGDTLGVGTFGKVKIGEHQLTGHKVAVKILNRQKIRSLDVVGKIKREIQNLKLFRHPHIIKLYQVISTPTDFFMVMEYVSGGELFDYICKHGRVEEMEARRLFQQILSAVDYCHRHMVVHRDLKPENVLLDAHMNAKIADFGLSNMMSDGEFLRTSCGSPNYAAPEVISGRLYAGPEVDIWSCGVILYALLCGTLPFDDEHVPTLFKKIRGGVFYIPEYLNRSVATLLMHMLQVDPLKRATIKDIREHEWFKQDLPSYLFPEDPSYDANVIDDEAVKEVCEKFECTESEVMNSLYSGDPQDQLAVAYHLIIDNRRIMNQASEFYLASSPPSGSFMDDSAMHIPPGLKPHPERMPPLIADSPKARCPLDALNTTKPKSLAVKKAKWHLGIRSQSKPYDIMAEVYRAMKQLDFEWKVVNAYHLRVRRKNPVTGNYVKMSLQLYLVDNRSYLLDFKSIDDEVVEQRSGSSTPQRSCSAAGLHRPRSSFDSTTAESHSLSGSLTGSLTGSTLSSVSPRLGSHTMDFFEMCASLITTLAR
PRKAA2/AMPK221, sequence (O43741 whole entry partner, species assumed): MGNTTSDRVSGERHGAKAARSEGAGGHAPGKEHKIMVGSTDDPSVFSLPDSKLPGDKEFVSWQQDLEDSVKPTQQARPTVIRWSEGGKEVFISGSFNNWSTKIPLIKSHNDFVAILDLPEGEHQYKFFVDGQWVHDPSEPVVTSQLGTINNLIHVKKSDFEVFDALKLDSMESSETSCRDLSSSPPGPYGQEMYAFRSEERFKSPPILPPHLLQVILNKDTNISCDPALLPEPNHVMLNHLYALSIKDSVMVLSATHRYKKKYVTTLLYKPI
PRKAA2/AMPK221, sequence (P54619 whole entry partner, species assumed): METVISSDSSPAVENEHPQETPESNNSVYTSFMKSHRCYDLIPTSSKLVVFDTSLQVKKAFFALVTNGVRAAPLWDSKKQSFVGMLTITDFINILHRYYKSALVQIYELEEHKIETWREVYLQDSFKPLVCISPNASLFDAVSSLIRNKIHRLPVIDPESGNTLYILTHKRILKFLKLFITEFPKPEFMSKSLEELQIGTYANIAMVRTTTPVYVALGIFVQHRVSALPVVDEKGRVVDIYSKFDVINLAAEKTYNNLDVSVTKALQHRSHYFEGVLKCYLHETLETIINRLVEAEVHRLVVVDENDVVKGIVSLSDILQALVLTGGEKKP
PDGFRB, sequence (P09619 33-1106, species assumed): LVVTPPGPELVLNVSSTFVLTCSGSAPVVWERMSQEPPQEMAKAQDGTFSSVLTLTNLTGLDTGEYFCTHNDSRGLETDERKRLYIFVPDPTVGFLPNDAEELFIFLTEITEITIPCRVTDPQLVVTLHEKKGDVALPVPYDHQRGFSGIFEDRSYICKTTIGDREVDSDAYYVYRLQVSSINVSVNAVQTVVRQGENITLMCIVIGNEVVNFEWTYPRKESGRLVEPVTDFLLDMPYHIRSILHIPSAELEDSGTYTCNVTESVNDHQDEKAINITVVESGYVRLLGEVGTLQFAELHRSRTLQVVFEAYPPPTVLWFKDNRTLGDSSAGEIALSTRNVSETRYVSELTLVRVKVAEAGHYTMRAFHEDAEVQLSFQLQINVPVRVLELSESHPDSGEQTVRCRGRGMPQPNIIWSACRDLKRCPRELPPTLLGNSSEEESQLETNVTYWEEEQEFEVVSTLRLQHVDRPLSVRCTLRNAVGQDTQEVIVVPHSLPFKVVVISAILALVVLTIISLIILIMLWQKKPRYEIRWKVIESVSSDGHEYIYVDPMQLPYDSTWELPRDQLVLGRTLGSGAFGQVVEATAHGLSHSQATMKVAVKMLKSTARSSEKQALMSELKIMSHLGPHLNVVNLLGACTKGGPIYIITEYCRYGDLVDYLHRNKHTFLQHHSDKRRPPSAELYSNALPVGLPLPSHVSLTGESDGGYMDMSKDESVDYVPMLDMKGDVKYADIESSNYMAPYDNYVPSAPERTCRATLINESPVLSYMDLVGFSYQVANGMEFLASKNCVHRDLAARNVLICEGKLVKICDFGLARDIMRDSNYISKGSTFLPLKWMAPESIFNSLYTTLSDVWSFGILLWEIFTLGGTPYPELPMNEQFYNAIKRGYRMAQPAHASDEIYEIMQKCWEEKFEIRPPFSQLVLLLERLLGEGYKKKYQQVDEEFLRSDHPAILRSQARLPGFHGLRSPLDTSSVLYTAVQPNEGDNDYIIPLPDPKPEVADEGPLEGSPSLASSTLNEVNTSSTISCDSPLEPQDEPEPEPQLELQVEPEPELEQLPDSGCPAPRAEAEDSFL
T1 sequence (Q06187 whole entry): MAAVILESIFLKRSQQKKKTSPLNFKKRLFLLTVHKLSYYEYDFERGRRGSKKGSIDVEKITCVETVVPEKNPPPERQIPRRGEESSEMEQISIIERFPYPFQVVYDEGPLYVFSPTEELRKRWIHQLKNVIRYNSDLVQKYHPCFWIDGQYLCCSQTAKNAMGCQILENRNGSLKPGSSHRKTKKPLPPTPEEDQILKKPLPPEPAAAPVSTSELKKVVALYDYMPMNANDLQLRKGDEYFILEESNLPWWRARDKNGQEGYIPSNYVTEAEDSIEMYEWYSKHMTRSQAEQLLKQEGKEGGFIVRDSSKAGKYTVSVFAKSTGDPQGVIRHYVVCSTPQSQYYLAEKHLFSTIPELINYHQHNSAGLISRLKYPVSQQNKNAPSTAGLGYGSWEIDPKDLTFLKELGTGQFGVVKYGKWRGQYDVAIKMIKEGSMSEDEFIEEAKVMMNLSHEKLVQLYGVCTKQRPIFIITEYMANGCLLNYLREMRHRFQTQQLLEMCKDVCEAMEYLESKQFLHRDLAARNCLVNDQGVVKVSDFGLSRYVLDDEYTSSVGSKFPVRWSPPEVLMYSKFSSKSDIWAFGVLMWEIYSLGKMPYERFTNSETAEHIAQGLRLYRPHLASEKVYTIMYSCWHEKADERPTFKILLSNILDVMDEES

On to `C=CC(=O)N1CCC[C@@H](c2c(F)cc(C(N)=O)c3[nH]c4c(c23)CCC4)C1` [Compound 10-2, (S)-8-(1-acryloylpiperidin-3-yl)-7-fluoro-1,2,3,4-tetrahydrocyclo-penta[b]indole-5-carboxamide], for which the IC50 – broadly, the concentration needed to halve the response being measured – in assay [1] is less than 10 nM. Further, in assay [2], the “selectivity in the large panel kinase screen” value (shortened to “selectivity”) is listed as “highly selective”. Moreover, the inhibition (commonly the drop in the measured response relative to a control, in per cent) at 1 µM in assay [3] was -3.5%; in assay [4], 4.7%; in assay [5] it was 32.1%; in assay [6], -19.2%.

In assay [1], `C=CC(=O)N1CCCC(c2c(F)cc(C(N)=O)c3[nH]c4c(c23)CCCCC4)C1` (single isomer, unassigned) [Compound 5-6] gave a half-inhibitory concentration (IC50) of less than 10 nM. The “selectivity” value in assay [2] was “highly selective”. The inhibition at 1 µM was -9.2% in assay [3], -52.9% in assay [4], -17.9% in assay [5] and 4.2% in assay [6].

In turn, `C=CC(=O)N1CCC[C@@H](c2c(F)cc(C(N)=O)c3[nH]c4c(c23)CC2(CC4)CC2)C1` [Compound 6-2, (S)-5-(1-acryloylpiperidin-3-yl)-6-fluoro-1,2,4,9-tetrahydrospiro[carbazole-3,1′-cyclopropane]-8-carboxamide] came in with an IC50 in assay [1] of less than 10 nM. Also, in assay [2], the “selectivity” value is given as “highly selective”. For the same compound, the inhibition at 1 µM in assay [3] is -18.5%; in assay [4] it was 23.2%; in assay [5], 11.7%; in assay [6], -27.2%.
